# Source: ChEMBL document CHEMBL3745610, “A dimeric urea of the bisabolene sesquiterpene from the Okinawan marine sponge Axinyssa sp. inhibits protein tyrosine phosphatase 1B activity in Huh-7 human hepatoma cells” (Bioorg Med Chem Lett, 2016)
# Calls of active or inactive are those of the source. No cut-off for these calls is given here.
# Tests used:
# [1] = biological target: T1, Tyrosine-protein phosphatase non-receptor type 1 (Homo sapiens) (UniProt P18031); experiment: Inhibition of recombinant human PTP1B using pNPP as substrate at 24 uM incubated for 10 mins prior to substrate addition measured after 30 mins by microplate reader analysis
# T1 sequence (whole entry): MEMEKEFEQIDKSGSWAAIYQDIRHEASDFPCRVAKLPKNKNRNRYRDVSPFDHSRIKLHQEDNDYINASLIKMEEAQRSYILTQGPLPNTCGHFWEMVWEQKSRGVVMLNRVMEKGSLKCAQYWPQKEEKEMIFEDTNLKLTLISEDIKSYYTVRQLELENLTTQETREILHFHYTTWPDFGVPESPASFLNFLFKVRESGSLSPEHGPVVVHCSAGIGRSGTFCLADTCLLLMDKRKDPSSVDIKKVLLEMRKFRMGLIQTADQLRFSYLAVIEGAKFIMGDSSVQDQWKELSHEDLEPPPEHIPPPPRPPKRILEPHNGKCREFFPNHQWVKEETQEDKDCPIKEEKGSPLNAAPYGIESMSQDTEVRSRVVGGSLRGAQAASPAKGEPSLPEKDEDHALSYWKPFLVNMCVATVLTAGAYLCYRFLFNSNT
# [2] = Cytotoxicity against human EJ1 cells assessed as cell viability after 72 hrs by WST-1 assay; type: cell-based; details: EJ1, 72 h
# [3] = Cytotoxicity against human HuH7 cells assessed as cell viability after 72 hrs by WST-1 assay; type: cell-based; details: Huh-7, 72 h
# [4] = biological target: T2, Tyrosine-protein phosphatase non-receptor type 1 (Homo sapiens, UniProt P18031); experiment: Inhibition of recombinant human PTP1B using pNPP as substrate incubated for 10 mins prior to substrate addition measured after 30 mins by microplate reader analysis
# T2 sequence (P18031 whole entry): T1 sequence (whole entry)
# [5] = biological target: T1, Tyrosine-protein phosphatase non-receptor type 1 (Homo sapiens); experiment: Inhibition of PTP1B in human Huh7 cells assessed as increase in insulin-stimulated phosphorylated Akt level preincubated for 2 hrs followed by insulin stimulation for 5 mins by Western blot analysis; type: cell-based; details: Huh-7
# [6] = biological target: T1, Tyrosine-protein phosphatase non-receptor type 1 (Homo sapiens); experiment: Inhibition of PTP1B in human Huh7 cells assessed as increase in phosphorylated Akt level at 50 uM after 2 hrs by Western blot analysis; type: cell-based; details: Huh-7
# [7] = biological target: T1, Tyrosine-protein phosphatase non-receptor type 1 (Homo sapiens); experiment: Inhibition of PTP1B in human Huh7 cells assessed as increase in phosphorylated Akt level at 20 uM after 2 hrs by Western blot analysis; type: cell-based; details: Huh-7
# [8] = biological target: T1, Tyrosine-protein phosphatase non-receptor type 1 (Homo sapiens); experiment: Inhibition of PTP1B in human Huh7 cells assessed as increase in insulin-stimulated phosphorylated Akt level at 20 uM preincubated for 2 hrs followed by insulin stimulation for 5 mins by Western blot analysis; type: cell-based; details: Huh-7
# [9] = biological target: T1, Tyrosine-protein phosphatase non-receptor type 1 (Homo sapiens); experiment: Inhibition of PTP1B in human Huh7 cells assessed as increase in insulin-stimulated phosphorylated Akt level at 50 uM preincubated for 2 hrs followed by insulin stimulation for 5 mins by Western blot analysis; type: cell-based; details: Huh-7
# [10] = biological target: T1, Tyrosine-protein phosphatase non-receptor type 1 (Homo sapiens); experiment: Inhibition of recombinant human PTP1B using pNPP as substrate at 36 uM incubated for 10 mins prior to substrate addition measured after 30 mins by microplate reader analysis
IC50 [4] [µM],inhibition [5],inhibition [6],inhibition [7],inhibition [8],inhibition [9],SMILES,inhibition [1] [%],IC50 [2] [µM],IC50 [3] [µM],inhibition [10] [%]
1.9,Dose-dependent effect,inactive,inactive,,,CC(C)=CCC[C@](C)(NC(=O)N[C@@](C)(CCC=C(C)C)[C@H]1CC=C(C)CC1)[C@H]1CC=C(C)CC1,,> 50,> 50,
> 45,,inactive,inactive,inactive,inactive,CC(C)=CCC[C@](C)(N)[C@H]1CC=C(C)CC1,,> 50,> 50,
17,,,,,,CC1=C[C@H]2[C@@H](CC1)[C@@](C)(N=C=S)CC[C@H]2C(C)C,,> 50,> 50,

# The next lines start with the compound.
SMILES,IC50 [4] [µM],inhibition [5],inhibition [6],inhibition [7],inhibition [8],inhibition [9],inhibition [1] [%],IC50 [2] [µM],IC50 [3] [µM],inhibition [10] [%]
C=C(C)[C@@H](C)/C=C/[C@@H](C)[C@H]1CC[C@@H]2[C@]1(C)CC[C@H]1[C@]23C=C[C@]2(C[C@@H](O)CC[C@]12C)OO3,,,,,,,50,21,26,
COc1cccc2c1C(=O)c1c(O)c3c(c(O)c1C2=O)C[C@@](O)(C(=O)CO)C[C@@H]3O[C@H]1C[C@H](N)[C@H](O)[C@H](C)O1 [DOXORUBICIN],,,,,,,,0.023,,
CC(C)[C@@H]1CC[C@](C)(N=C=S)[C@@H]2CC[C@@](C)(O)C=C12 [AXINISOTHIOCYANATE J],,,,,,,,> 50,> 50,50
